Measurements from patent US20100159528A1, “POLYMERASE STABILIZATION” (GE HEALTHCARE BIO-SCIENCE CORP., priority 2007, published 2010).

Legend:
[1] = system: Tba DNA polymerase; assay: PCR assay for detergents screening: amplification of a 1 kb λDNA fragment with Tba purified and stored without detergents; format: biochemical, Thermococcus barossii; settings: for % Activity relative to TWEEN ® 20: PCR yield of 1 kb λDNA fragment, Agilent Bioanalyzer; for PCR yield higher than the positive control (TWEEN® 20): PCR reactions containing the detergent; for stabilization and activation of DNA polymerase (in words): detergent added into PCR reaction mix at 0.01% and 0.1% (FIG. 2)
Protocol: In this experiment, two lots of DNA polymerase that were purified and stored in buffers with/without detergents were tested. Each of the tested DNA polymerase was first diluted into 20 folds in buffers with and without of TWEEN® 20, respectively, prior to PCR and then equal units of enzyme was added into PCR mix. PCRs were performed in 25 μl volume in with 200 nM of forward and reverse primers, 200 μM dNTP, 1.0 unit of Tba and 1.0 ng template DNA. 1 kb human genomic DNA and 1 kb lambda DNA fragments were amplified. Reaction buffer contains 10 mM Tris-HCl, pH 9.0, 50 mM KCl, and 1.5 mM MgCl2. The PCR reaction was started by 2 minutes initial heating at 95° C., followed by 35 cycles with 95° C. for 30 s, 55° C. 30 s, and 72° C. for 60 s, and then final extension at 72° C. for 5 min. The PCR products were analyzed with Agilent Bioanalyzer.
The PCR assay was used for the detergents screening. The tested detergents were first dissolved in molecular biology grade water and neutralized to pH7 with a sodium hydroxide solution to make final concentration of 5% (W/V) stock solutions. The 5% detergent solutions were then used for the screening by either adding them into enzyme dilution buffer or spiked into PCR mix. The amplification of a 1 kb λDNA fragment was used test the effect of each detergent on the Tba stability and activity. The PCR conditions are the same as described earlier. Tba that was purified and stored in the absence of detergents was used for the tests. The tested detergents were spiked into the PCR reactions at a final concentration of 0.01%, 0.05%, and 0.1%, respectively. The PCR yields were quantitated by Agilent Bioanalyzer.

[2] = system: DNA polymerase; settings: for effect of high detergent concentration on stability and activity: Concentrations above 0.5% (W/V)
Protocol: For ♦, each detergent is present at the indicated amount.
(§1) The stabilization functions of these two detergents are tested for δJSER DNA polymerase as well. […] In addition, the stabilization effects of these two detergents on DNA polymerase were also tested in the activity assay and thermostability assay.

[3] = system: DNA polymerase
Protocol: An enzyme will have a maximal activity rate, which is preferably measured under conditions of saturating substrate concentration and at a selected set of environmental conditions including temperature, pH and salt concentration. For the DNA polymerases described herein, preferred conditions for measuring activity are 25 mM TAPS (tris-hydroxymethyl 25 methylaminopropane sulfonic acid) buffer, pH 9.3 (measured at 25° C.), 50 mM KCl, 2 mM MgCl2, 1 mM 2- mercaptoethanol, 0.2 mM each of dGTP, dCTP, dTTP, 0.2 mM [α-33P]-dATP (0.05-0.1 Ci/mmol) and 0.4 mg/mL activated salmon sperm DNA. The reaction is allowed to proceed at 74° C. Exemplary methods for measuring the DNA polymerase activity of an enzyme under such 30 conditions are provided hereinafter.
as §1

[4] = system: δJSER DNA polymerase; assay: Stabilization/activation test for δJSER DNA polymerase; format: biochemical, JSER; settings: compared with the effect on Tba
Protocol: as §1

[5] = Detergent Conc. 0.01% in PCR reaction
[6] = Detergent Conc. 0.05% in PCR reaction
[7] = Detergent Conc. 0.10% in PCR reaction

TWEEN® 20 [reference compound]
formation of PCR products depending on detergent in the enzyme dilution buffer ([1]; Tba diluted 20 fold in buffer with/without TWEEN® 20, 1 kb λDNA and human genomic DNA fragments (FIG. 1)): PCR products were only obtained from the reactions that the enzymes were diluted in a buffer containing the detergent

polyoxyethylene nonylphenol ether, phosphate [RHODAFAC™ RE-960]
% Activity relative to TWEEN ® 20 [1, 5]: 130.7%
% Activity relative to TWEEN ® 20 [1, 6]: 165.8%
% Activity relative to TWEEN ® 20 [1, 7]: 167.1%
PCR yield higher than the positive control (TWEEN® 20) [1]: about 30%
stabilization and activation of DNA polymerase (in words) [1]: work very well in stabilization and activation of DNA polymerase
stabilization effect in the thermostability test compared with TWEEN® 20 [2]: same or better stabilization effects
DNA polymerase remaining active after heating ([2]; 95° C., 15 minutes, 1x PCR buffer, compared with NP40 and TWEEN® 20 (FIG. 3)): more DNA polymerase remains active
effect of high detergent concentration on stability and activity [2]: do not improve stability but do not decrease activity
stabilization effect in the activity assay compared with TWEEN® 20 [3]: same or better stabilization effects
activation of δJSER DNA polymerase [4]: same activation

polyoxyethylene tridecyl ether, phosphate [RHODAFAC™ RS-960]
% Activity relative to TWEEN ® 20 [1, 5]: 101.8%
% Activity relative to TWEEN ® 20 [1, 6]: 167.9%
% Activity relative to TWEEN ® 20 [1, 7]: 178.6%
PCR yield higher than the positive control (TWEEN® 20) [1]: about 30%
stabilization and activation of DNA polymerase (in words) [1]: work very well in stabilization and activation of DNA polymerase
stabilization effect in the thermostability test compared with TWEEN® 20 [2]: same or better stabilization effects
effect of high detergent concentration on stability and activity [2]: do not improve stability but do not decrease activity
stabilization effect in the activity assay compared with TWEEN® 20 [3]: same or better stabilization effects
activation of δJSER DNA polymerase [4]: same activation
